biological target: T1, GPR84 (Homo sapiens, UniProt Q9NQS5); test: GPR84 [35S]GTPγS binding assay; format: biochemical; conditions: 3,3′-diindolylmethane at EC80; membranes from stable cell line over expressing GPR84
T1 construct: expressed in transfected cells
Method: The following assay can be used for determination of GPR84 activation. The [^35S]GTPγS binding assay measures the level of G protein activation following agonist occupation of a GPCR, by determining the binding of the non-hydrolysable analog [^35S]GTPγS to Gα subunits.
The assay is performed in a 96-well plate where the following reagents are added. First 50 μL compound is added into the assay plate, followed by addition of 20 μL 3,3′-diindolylmethane at EC80 concentration (concentration which gives 80% of the activity of GPR84). Then, 30 μL of a mixture consisting of membranes-GTPγS-SpA beads is added [mixture consists of 20 μg/well membranes derived from stable cell line over expressing GPR84 (membranes are pre-incubated with 0.1 μM GDP for 15 min at 4° C.), 0.1 nM [^35S]GTPγS (Perkin Elmer, NEG030) and 0.5 mg/well PVT-WGA SpA beads (Perkin Elmer, RPNQ0001)]. All components are diluted in assay buffer containing 20 mM Tris pH 7.5; 5 mM MgCl2; 250 mM NaCl; 0.05% BSA; 75 μg/mL saponin. After an incubation of 90 min at room temperature, 20 μL CsCl2 0.8 M (MP Biomedicals, 02150589) is added, followed by centrifugation at 2000 rpm during 20 min. Plates are read on a topcount reader (perkin elmer) immediately after centrifugation (readout time, 1 min/well).

T1 sequence (Q9NQS5 whole entry): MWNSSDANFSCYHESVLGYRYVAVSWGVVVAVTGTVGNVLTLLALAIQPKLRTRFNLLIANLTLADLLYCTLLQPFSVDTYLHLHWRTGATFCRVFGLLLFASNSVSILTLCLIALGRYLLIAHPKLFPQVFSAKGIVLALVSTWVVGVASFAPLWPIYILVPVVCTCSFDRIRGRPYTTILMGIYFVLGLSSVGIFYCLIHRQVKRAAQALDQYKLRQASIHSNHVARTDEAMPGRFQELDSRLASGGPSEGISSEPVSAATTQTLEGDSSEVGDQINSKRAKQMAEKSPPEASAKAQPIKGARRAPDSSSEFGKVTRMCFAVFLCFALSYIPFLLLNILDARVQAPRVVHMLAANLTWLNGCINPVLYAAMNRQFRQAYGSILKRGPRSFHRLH

`Cc1c2n(c(OC[C@@H]3COCCO3)cc1=O)CCc1cc(N3CCC[C@H]3C)ccc1-2` [Compound 134, 4-[[(2S)-1,4-dioxan-2-yl]methoxy]-1-methyl-9-[(2R)-2-methylpyrrolidin-1-yl]-6,7-dihydrobenzo[a]quinolizin-2-one] and `Cc1c2n(c(OC[C@@H]3COCCO3)cc1=O)CCc1cc(N3CCCCC3C)ccc1-2` (stereo partly drawn) [Compound 143, 4-[[(2S)-1,4-dioxan-2-yl]methoxy]-1-methyl-9-(2-methyl-1-piperidyl)-6,7-dihydrobenzo[a]quinolizin-2-one] fall in the same range of IC50: 0.01 to 100 nM for the first, 0.01 to 100 nM for the second.

`Cc1c2n(c(OC[C@@H]3COCCO3)cc1=O)CCc1cc(N3CCCC(F)C3)ccc1-2` (stereo partly drawn) [Compound 135, 4-[[(2S)-1,4-dioxan-2-yl]methoxy]-9-(3-fluoro-1-piperidyl)-1-methyl-6,7-dihydrobenzo[a]quinolizin-2-one] and `Cc1c2n(c(OC[C@@H]3COCCO3)cc1=O)CCc1cc(N3CCC(C)CC3)ccc1-2` [Compound 141, 4-[[(2S)-1,4-dioxan-2-yl]methoxy]-1-methyl-9-(4-methyl-1-piperidyl)-6,7-dihydrobenzo[a]quinolizin-2-one] fall in the same range of IC50: 0.01 to 100 nM for the first, 0.01 to 100 nM for the second.

First: Cc1c2n(c(OC[C@@H]3COCCO3)cc1=O)CCc1cc(-n3c4ccccc4c4ccccc43)ccc1-2 [Compound 136, 9-carbazol-9-yl-4-[[(2S)-1,4-dioxan-2-yl]methoxy]-1-methyl-6,7-dihydrobenzo[a]quinolizin-2-one]
Second: Cc1c2n(c(OC[C@@H]3COCCO3)cc1=O)CCc1ccccc1-2 [Compound 156, 4-[[(2S)-1,4-dioxan-2-yl]methoxy]-1-methyl-6,7-dihydrobenzo[a]quinolizin-2-one]
The IC50 of the first is lower: 0.01 to 100 nM for the first, 100 to 500 nM for the second. The first is the more potent here.

`Cc1c2n(c(OC[C@@H]3COCCO3)cc1=O)CCc1cc(N3CC(C)CC(C)C3)ccc1-2` (stereo partly drawn) [Compound 137, 9-(3,5-dimethyl-1-piperidyl)-4-[[(2S)-1,4-dioxan-2-yl]methoxy]-1-methyl-6,7-dihydrobenzo[a]quinolizin-2-one] and `Cc1c2n(c(OC[C@@H]3COCCO3)cc1=O)CCc1cc(N3CCC(C)(C)C3)ccc1-2` [Compound 138, 9-(3,3-dimethylpyrrolidin-1-yl)-4-[[(2S)-1,4-dioxan-2-yl]methoxy]-1-methyl-6,7-dihydrobenzo[a]quinolizin-2-one] fall in the same range of IC50: 0.01 to 100 nM for the first, 0.01 to 100 nM for the second.

`Cc1c2n(c(OC[C@@H]3COCCO3)cc1=O)CCc1cc(N3CCC(C)(C)CC3)ccc1-2` [Compound 139, 9-(4,4-dimethyl-1-piperidyl)-4-[[(2S)-1,4-dioxan-2-yl]methoxy]-1-methyl-6,7-dihydrobenzo[a]quinolizin-2-one] and `Cc1c2n(c(OC[C@@H]3COCCO3)cc1=O)CCc1cc(N3CCC(C(F)(F)F)CC3)ccc1-2` [Compound 140, 4-[[(2S)-1,4-dioxan-2-yl]methoxy]-1-methyl-9-[4-(trifluoromethyl)-1-piperidyl]-6,7-dihydrobenzo[a]quinolizin-2-one] fall in the same range of IC50: 0.01 to 100 nM for the first, 0.01 to 100 nM for the second.

`Cc1c2n(c(OC[C@@H]3COCCO3)cc1=O)CCc1cc(NCC(F)(F)F)ccc1-2` [Compound 142, 4-[[(2S)-1,4-dioxan-2-yl]methoxy]-1-methyl-9-(2,2,2-trifluoroethylamino)-6,7-dihydrobenzo[a]quinolizin-2-one] and `Cc1c2n(c(OC[C@@H]3COCCO3)cc1=O)CCc1cc(OCC(F)(F)C(F)(F)F)ccc1-2` [Compound 155, 4-[[(2S)-1,4-dioxan-2-yl]methoxy]-1-methyl-9-(2,2,3,3,3-pentafluoropropoxy)-6,7-dihydrobenzo[a]quinolizin-2-one] fall in the same range of IC50: 0.01 to 100 nM for the first, 0.01 to 100 nM for the second.

First: Cc1c2n(c(OC[C@@H]3COCCO3)cc1=O)CCc1cc(OC3CCN(C(=O)C4CC4)C3)ccc1-2 (stereo partly drawn) [Compound 144, 9-[1-(cyclopropanecarbonyl)pyrrolidin-3-yl]oxy-4-[[(2S)-1,4-dioxan-2-yl]methoxy]-1-methyl-6,7-dihydrobenzo[a]quinolizin-2-one]
Second: CCOC(=O)N1CCC(Oc2ccc3c(c2)CCn2c(OC[C@@H]4COCCO4)cc(=O)c(C)c2-3)C1 (stereo partly drawn) [Compound 145, ethyl 3-[[4-[[(2S)-1,4-dioxan-2-yl]methoxy]-1-methyl-2-oxo-6,7-dihydrobenzo[a]quinolizin-9-yl]oxy]pyrrolidine-1-carboxylate]
The IC50 of the first is higher: 100 to 500 nM for the first, 0.01 to 100 nM for the second. The second is the more potent here.

`Cc1c2n(c(OC[C@@H]3COCCO3)cc1=O)CCc1cc(C3CN(C(=O)C4CC4)C3)ccc1-2` [Compound 146, 9-[1-(cyclopropanecarbonyl)azetidin-3-yl]-4-[[(2S)-1,4-dioxan-2-yl]methoxy]-1-methyl-6,7-dihydrobenzo[a]quinolizin-2-one] and `Cc1c2n(c(OC[C@@H]3COCCO3)cc1=O)CCc1cc(C3CN(C(=O)N(C)C)C3)ccc1-2` [Compound 148, 3-[4-[[(2S)-1,4-dioxan-2-yl]methoxy]-1-methyl-2-oxo-6,7-dihydrobenzo[a]quinolizin-9-yl]-N,N-dimethyl-azetidine-1-carboxamide] fall in the same range of IC50: 500 to 1000 nM for the first, 500 to 1000 nM for the second.

First: CCOC(=O)N1CC(c2ccc3c(c2)CCn2c(OC[C@@H]4COCCO4)cc(=O)c(C)c2-3)C1 [Compound 147, ethyl 3-[4-[[(2S)-1,4-dioxan-2-yl]methoxy]-1-methyl-2-oxo-6,7-dihydrobenzo[a]quinolizin-9-yl]azetidine-1-carboxylate]
Second: Cc1c2n(c(OC[C@@H]3COCCO3)cc1=O)CCc1cc(C3CN(C(=O)NC(C)C)C3)ccc1-2 [Compound 149, 3-[4-[[(2S)-1,4-dioxan-2-yl]methoxy]-1-methyl-2-oxo-6,7-dihydrobenzo[a]quinolizin-9-yl]-N-isopropyl-azetidine-1-carboxamide]
The IC50 of the first is lower: 0.01 to 100 nM for the first, 500 to 1000 nM for the second.

`Cc1c2n(c(OC[C@@H]3COCCO3)cc1=O)CCc1cc(OC3CN(C(=O)N(C)C)C3)ccc1-2` [Compound 150, 3-[[4-[[(2S)-1,4-dioxan-2-yl]methoxy]-1-methyl-2-oxo-6,7-dihydrobenzo[a]quinolizin-9-yl]oxy]-N,N-dimethyl-azetidine-1-carboxamide] and `Cc1c2n(c(OC[C@@H]3COCCO3)cc1=O)CCc1cc(OC3CN(C(=O)NC(C)C)C3)ccc1-2` [Compound 151] fall in the same range of IC50: 500 to 1000 nM for the first, 500 to 1000 nM for the second.

First: Cc1c2n(c(OCC3CC(C)(C)O3)cc1=O)CCc1cc(OCc3ccccc3)ccc1-2 (stereo not shown) [Compound 152, 9-benzyloxy-4-[(4,4-dimethyloxetan-2-yl)methoxy]-1-methyl-6,7-dihydrobenzo[a]quinolizin-2-one]
Second: Cc1c2n(c(OCC3CCC(C)(C)O3)cc1=O)CCc1cc(OCc3ccccc3)ccc1-2 (stereo not shown) [Compound 154, 9-benzyloxy-4-[(5,5-dimethyltetrahydrofuran-2-yl)methoxy]-1-methyl-6,7-dihydrobenzo[a]quinolizin-2-one]
The IC50 of the first is higher: 100 to 500 nM for the first, 0.01 to 100 nM for the second.

First: Cc1c2n(c(OCC3(C)CCCO3)cc1=O)CCc1cc(OCc3ccccc3)ccc1-2 (stereo not shown) [Compound 153, 9-benzyloxy-1-methyl-4-[(2-methyltetrahydrofuran-2-yl)methoxy]-6,7-dihydrobenzo[a]quinolizin-2-one]
Second: Cc1c2n(c(OC[C@@H]3COCCO3)cc1=O)CCc1cc(OCCF)ccc1-2 [Compound 159, 4-[[(2S)-1,4-dioxan-2-yl]methoxy]-9-(2-fluoroethoxy)-1-methyl-6,7-dihydrobenzo[a]quinolizin-2-one]
The IC50 of the first is higher: 100 to 500 nM for the first, 0.01 to 100 nM for the second. The second is the more potent here.

`Cc1c2n(c(OC[C@@H]3COCCO3)cc1=O)CCc1cc(N3CCCC3=O)ccc1-2` [Compound 157, 4-[[(2S)-1,4-dioxan-2-yl]methoxy]-1-methyl-9-(2-oxopyrrolidin-1-yl)-6,7-dihydrobenzo[a]quinolizin-2-one] showed an IC50 of 500 to 1000 nM.
